According to patent US6500845B1, “Lactam derivatives as immunomodulating agents” (Gruenenthal GmbH, priority 1994, dated 2002):
Values after ≈ are worked out from the molar mass of the structure shown.

Columns and labels:
[1] = tested on: LPS-induced TNF-α release, human mononuclear cells; assay: LPS-induced TNF-α release from human mononuclear cells of the peripheral blood; assay type: cell-based; conditions: 20 hours incubation; for IC50: Homo sapiens, LPS-induced, read-out: IC50 (50% inhibition in the release of TNF-α); for Inhibition of TNF-α release in (%): concentration of 50 μ/ml, LPS 2.5 μg
From the text: The release of cytokines from human mononuclear cells of the peripheral blood, i.e. T-cells, B-cells and monocytes, can be studied in vitro after stimulation by lipopolysaccharide (LPS) or the toxic shock syndrome toxin-1 (TSST-1). LPS is a component of the bacterial cell wall and stimulates monocytes and macrophages. TSST-1 is a bacterial superantigen that stimulates T-cells as well as monocytes/macrophages. Superantigens bind to the Vβ chain of the T-cell receptor and to the MHC class II and thus simulate the recognition by a specific T-cell receptor of an antigen presented by the MHC class II. Activation of cells by LPS or TSST-1 induces the release of TNF-α, IFN-γ and other cytokines.
Mononuclear cells were prepared from the heparinized blood of at least three voluntary donors. For this purpose, 20 ml blood samples each were separated according to well known procedures using a Ficoll-Paque gradient. The cells were harvested and washed three times with a cell culture medium. This cell culture medium was composed of RPMI 1640 medium supplemented with 2 mM of glutamine (Life Technologies, Eggenstein, Germany), 10% fetal calf serum (Life Technologies), 50 μg/ml of streptomycin (Sigma, Deisenhofen, Germany), 50 IU/ml of penicillin (Sigma) and 100 μM of b-mercaptoethanol (Merck, Darmstadt, Germany). The mononuclear cells were suspended in 15 ml of cell culture medium and separated in 1 ml fractions in sterile 24-well incubation plates (Sigma). 1 μl of dimethylsulfoxide (DMSO) or 1 μl of a DMSO-solution containing 5 ′ by weight of a compound according to the invention was added to each of the 1 ml fractions. After incubation for 1 hour in a CO2-incubator (5% CO2, 90% humidity), 2.5 μg of LPS (from E. coli 0127: B8, Sigma) or 0.1 μg of TSST-1 (Sigma) were added to each of the fractions containing a compound according to the invention. Incubation of the cultures was continued for 20 hours. The concentrations of TNF-α and IFN-γ in the cell culture supernatants were determined with commercial ELISA-tests (Boehringer Mannheim, Germany; Endogen, Boston, Mass.).
The IC50 value is the concentration in μg/ml which produces a 50% inhibition in the release of TFN-α.

[2] = tested on: TSST-1-induced release of TNF-α, human mononuclear cells; assay type: cell-based
[3] = tested on: IL-2 release in vivo (T-lymphocytes stimulated by staphylococcal enterotoxin B); parameters: species or system Balb/c mice; conditions: mouse; for ED40 (dosage reducing serum IL-2 concentrations by 40%): ip
[4] = tested on: TSST-1-induced release of IFN-γ, human mononuclear cells; assay type: cell-based

## CC1(N2Cc3ccccc3C2=O)CCC(=O)NC1=O (racemic) [Example 2, 3-Methyl-3-(1-oxo-1,3-dihydro-isoindol-2-yl)-piperidine-2,6-dione]
[1]
  IC50: 10 µg/mL (≈ 38.7 µM)
  Inhibition of TNF-α release in (%): 72 ± 8%
other
  melting point: 231 to 232 °C
[2]
  Effect on TSST-1-induced release of TNF-α: enhanced compared to thalidomide
[3]
  Maximum inhibition of serum IL-2 increase in %: 56 ± 3%
  ED40 (dosage reducing serum IL-2 concentrations by 40%): 112 mg/kg i.p.
[4]
  Effect on TSST-1-induced release of IFN-γ: enhanced compared to thalidomide

## O=C1CCC(N2C(=O)c3ccccc3C2=O)C(=O)N1 (stereo not drawn) [Thalidomide, reference compound]
[1]
  IC50: 50 µg/mL (≈ 194 µM)
  Inhibition of TNF-α release in (%): 54 ± 7%
[3]
  Maximum inhibition of serum IL-2 increase in %: 56 ± 10%
  ED40 (dosage reducing serum IL-2 concentrations by 40%): 171 mg/kg i.p.

## CC1(n2sc3ccccc3c2=O)CCCNC1=O (stereo not drawn) [Example 4, 2-(3-methyl-2-oxo-piperidin-3-yl)-benzo[d]isothiazol-3-one]
[1]
  Inhibition of TNF-α release in (%): 93 ± 9%
[3]
  Maximum inhibition of serum IL-2 increase in %: 52 ± 3%
  ED40 (dosage reducing serum IL-2 concentrations by 40%): <10 mg/kg i.p.

## CC1(N2Cc3ccccc3C2=O)CCC(=O)NC1=O (single isomer, unassigned; (-)) [Example 3 (−) enantiomer, (−)-3-Methyl-3-(1-oxo-1,3-dihydro-isoindol-2-yl)-piperidine-2,6-dione]
[1]
  IC50: 8 µg/mL (≈ 31 µM)
  Inhibition of TNF-α release in (%): 82 ± 5%
[3]
  Maximum inhibition of serum IL-2 increase in %: 54 ± 5%
  ED40 (dosage reducing serum IL-2 concentrations by 40%): 297 mg/kg i.p.

## CC1(n2[se]c3ccccc3c2=O)CCCNC1=O (stereo not drawn) [Example 1, 2-(3-Methyl-2-oxo-piperidin-3-yl)-benzo[d]isoselenazol-3-one]
[1]
  Inhibition of TNF-α release in (%): 93 ± 1%
[3]
  Maximum inhibition of serum IL-2 increase in %: 43 ± 5%
  ED40 (dosage reducing serum IL-2 concentrations by 40%): ca. 20^ mg/kg i.p.
